Test [1] has as its system Male ICR mice. Put plainly: Novel Object Recognition Test (NORT), MK-801 induced amnesia. Type of test: in vivo. Particulars: Mus musculus; po; dose at which the relative RI is given; doses 0.03˜3 mg/kg; read-out: NORT MED. The source says: A NORT, which was first introduced by Ennaceur and Delacour, is a cognitive memory test for measuring whether rats are able to remember objects with which they have had previous experience based on the nature of rats, i.e., preference to explore novel objects [Ennaceur A and Delacour J (1988) A new one-trial test for neurobiological studies of memory in rats. 1; Behavioral data. Behavioral Brain Res. 31; 47-59]. This NOR test is a popular experimental method for measuring changes in memory of objects in rodents administered with either an amnesia-inducing drug or other general drugs, by which memory recovery efficacy of a test drug in the rodents administered with the amnesia-inducing drug is explored. In the present example, the test was performed in accord with the description of Bevins and Besheer [Bevins, R. A. & Besheer, J. Object recognition in rats and mice; a one-trial non-matching-to-sample learning task to study ‘recognition memory’. Nat. Protoc. 2006; 1(3); 1306-11. (2006)]. Male ICR mice (available from Orient Bio Inc., Korea) weighing from about 20 g to about 32 g were orally administered a test compound dissolved in a 30% PEG at doses of 0.03˜3 mg/kg and 10 ml/kg body weight. 30 minutes after the administration, MK-801 (available from Sigma) dissolved in saline was subcutaneously administered at doses of 0.1 mg/kg and 10 ml/kg body weight to induce amnesia. About 30 minutes after the administration of MK-801, the mice were allowed to explore a rectangular stainless steel pillar or a circular plastic pillar which was previously placed in a box for about 5 minutes. About 24 hours after the exploration, one of the two objects previously presented was replaced with a new one (i.e., to include one rectangular stainless steel pillar and one circular plastic pillar), the times they took to explore were measured for about 5 minutes. A recognition index (RI) was defined as: [(Exploration time for novel object in test compound group/Exploration time for all objects in test compound group)/(Exploration time for novel object in MK801 group/Exploration time for all objects in MK801 group)×100].
Table 2 below presents relative RIs of the compounds at a minimal dose […].

The next test deals with human α7 nAChR (Homo sapiens, UniProt P36544). Put plainly: cell-based. Conditions: EC50 of human α7nAChR(nM), HEK293T/17 cells transfected with human α7 nAChR; PNU-120596 added; relative to epibatidine 1 μM positive control.
human α7 nAChR, sequence (P36544 23-502): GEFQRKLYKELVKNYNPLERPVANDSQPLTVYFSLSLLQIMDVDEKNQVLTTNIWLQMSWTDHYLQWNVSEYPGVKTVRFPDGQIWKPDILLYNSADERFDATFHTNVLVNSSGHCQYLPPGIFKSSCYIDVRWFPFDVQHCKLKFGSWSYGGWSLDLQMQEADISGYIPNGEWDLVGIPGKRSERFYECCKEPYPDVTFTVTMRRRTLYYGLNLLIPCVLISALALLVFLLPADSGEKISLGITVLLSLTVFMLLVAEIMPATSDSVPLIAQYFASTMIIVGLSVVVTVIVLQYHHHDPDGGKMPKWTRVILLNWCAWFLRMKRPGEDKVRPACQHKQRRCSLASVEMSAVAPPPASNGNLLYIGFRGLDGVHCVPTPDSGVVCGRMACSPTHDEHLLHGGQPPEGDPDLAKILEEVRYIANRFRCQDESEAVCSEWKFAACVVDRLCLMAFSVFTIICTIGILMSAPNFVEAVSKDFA
In test [2] the test system is Male ICR mice. The experiment in a line: Novel Object Recognition Test (NORT), MK-801 induced amnesia. The format is in vivo. Conditions: Mus musculus; ip; dose at which the relative RI is given; doses 0.03˜3 mg/kg; read-out: NORT MED.

Our source for the minimal effective dose and EC50 values is patent US8716309B2, “Pharmaceutical composition comprising pyridone derivatives” (priority 2011, dated 2014).

Each structure is given as a SMILES string. Read-outs that look alike come from different tables or passages of the source.

Turning to `CSc1cc(C)ccc1-n1cc(C(=O)NC2CN3CCC2CC3)ccc1=O` (stereo not drawn) [Example 89, N-(1-azabicyclo[2.2.2]octan-3-yl)-1-[4-methyl-2-(methylthio)phenyl]-6-oxo-3-pyridinecarboxamide], the minimal effective dose with Male ICR mice [1] worked out at 0.03 mg/kg. At human α7 nAChR, the EC50 was < 100 nM.
For `Cc1ccc(-n2cc(C(=O)NC3CN4CCC3CC4)ccc2=O)c(Cl)c1` (stereo not drawn) [Example 33, N-(1-azabicyclo[2.2.2]octan-3-yl)-1-(2-chloro-4-methylphenyl)-6-oxo-3-pyridinecarboxamide], in that order: 1 mg/kg and 100 to 500 nM.
For the compound `O=C(N[C@H]1CN2CCC1CC2)c1ccc(=O)n(-c2ccc(Cl)cc2)c1` [Example 5, N-[(3R)-1-azabicyclo[2.2.2]octan-3-yl]-1-(4-chlorophenyl)-6-oxopyridine-3-carboxamide], on human α7 nAChR, the EC50 is > 1000 nM. The minimal effective dose in the test with Male ICR mice [2] worked out at 0.1 mg/kg.
With `O=C(NC1CN2CCC1CC2)c1ccc(=O)n(-c2ccccc2-c2nccs2)c1` (stereo not drawn) [Example 104, N-(1-azabicyclo[2.2.2]octan-3-yl)-6-oxo-1-[2-(2-thiazolyl)phenyl]-3-pyridinecarboxamide], the minimal effective dose in the test with Male ICR mice [1] stood at 3 mg/kg. Also, the EC50 on human α7 nAChR lay in the range of 100 to 500 nM.
For the compound `O=C(NC1CN2CCC1CC2)c1ccc(=O)n(-c2ccc(Cl)cc2Cl)c1` (stereo not drawn) [Example 25, N-(1-azabicyclo[2.2.2]octan-3-yl)-1-(2,4-dichlorophenyl)-6-oxo-3-pyridinecarboxamide], the minimal effective dose with Male ICR mice [1] came to 3 mg/kg. The EC50 at human α7 nAChR lay in the range of 500 to 1000 nM.
Turning to `O=C(NC1CN2CCC1CC2)c1ccc(=O)n(-c2ccc(Cl)cc2-c2nccs2)c1` (stereo not drawn) [Example 105, N-(1-azabicyclo[2.2.2]octan-3-yl)-1-[4-chloro-2-(2-thiazolyl)phenyl]-6-oxo-3-pyridine carboxamide], the minimal effective dose in the test on Male ICR mice [1] is 0.3 mg/kg. The compound also displayed an EC50 on human α7 nAChR of 500 to 1000 nM.
With `O=C(N[C@H]1CN2CCC1CC2)c1ccc(=O)n(-c2ccc(Cl)cc2Cl)c1` [Example 26, N-[(3R)-1-azabicyclo[2.2.2]octan-3-yl)-1-(2,4-dichlorophenyl)-6-oxo-3-pyridinecarboxamide], the minimal effective dose in the test with Male ICR mice [1] was 1 mg/kg. Also, the EC50 on human α7 nAChR lay in the range of 100 to 500 nM.
`COc1ccc(-n2cc(C(=O)NC3CN4CCC3CC4)ccc2=O)c(SC)c1` (stereo not drawn) [Example 84, N-(1-azabicyclo[2.2.2]octan-3-yl)-1-[4-methoxy-2-(methylthio)phenyl]-6-oxo-3-pyridinecarboxamide]: in the test with Male ICR mice [1], the minimal effective dose turned out to be 0.3 mg/kg. The concentration for a half-maximal effect (EC50) on human α7 nAChR was < 100 nM.
Take `O=C(NC1CN2CCC1CC2)c1ccc(=O)n(-c2ccc(Cl)cc2)c1` (stereo not drawn) [Example 4, N-(1-azabicyclo[2.2.2]octan-3-yl)-1-(4-chlorophenyl)-6-oxo-3-pyridinecarboxamide]: in the test with Male ICR mice [1], the minimal effective dose at 3 mg/kg was found to be 3 mg/kg. Besides, the EC50 at human α7 nAChR was > 1000 nM.
For `CSc1cc(C)ccc1-n1cc(C(=O)N[C@@H]2CN3CCC2CC3)ccc1=O` [Example 91, N-[(3S)-1-azabicyclo[2.2.2]octan-3-yl]-1-[4-methyl-2-(methylthio)phenyl]-6-oxo-3-pyridinecarboxamide], the minimal effective dose at 3 mg/kg with Male ICR mice [1] is 3 mg/kg. For the same compound, at human α7 nAChR, the EC50 lay within 100 to 500 nM.
As for `O=C(NC1CN2CCC1CC2)c1ccc(=O)n(-c2ccccc2OCc2ccccc2)c1` (stereo not drawn) [Example 63, N-(1-azabicyclo[2.2.2]octan-3-yl)-6-oxo-1-(2-phenylmethoxyphenyl)-3-pyridinecarboxamide], the EC50 on human α7 nAChR is > 1000 nM.
In the case of `CSc1cc(C)ccc1-n1cc(C(=O)N[C@H]2CN3CCC2CC3)ccc1=O` [Example 90, N-[(3R)-1-azabicyclo[2.2.2]octan-3-yl]-1-[4-methyl-2-(methylthio)phenyl]-6-oxo-3-pyridinecarboxamide], the EC50 on human α7 nAChR is < 100 nM.
In the case of `O=C(N[C@@H]1CN2CCC1CC2)c1ccc(=O)n(-c2ccc(Cl)cc2Cl)c1` [Example 27, N-[(3S)-1-azabicyclo[2.2.2]octan-3-yl)-1-(2,4-dichlorophenyl)-6-oxo-3-pyridinecarboxamide], in the test on Male ICR mice [1], the minimal effective dose turned out to be 1 mg/kg. Besides, the EC50 at human α7 nAChR was > 1000 nM.
`Cc1cnc(-c2ccccc2-n2cc(C(=O)NC3CN4CCC3CC4)ccc2=O)s1` (stereo not drawn) [Example 106, N-(1-azabicyclo[2.2.2]octan-3-yl)-1-[2-(5-methyl-2-thiazolyl)phenyl]-6-oxo-3-pyridinecarboxamide] returned an EC50 at human α7 nAChR of 500 to 1000 nM.
The compound `O=C(NC1CN2CCC1CC2)c1ccc(=O)n(-c2cccc3ccccc23)c1` (stereo not drawn) [Example 102, N-(1-azabicyclo[2.2.2]octan-3-yl)-1-(1-naphthalenyl)-6-oxo-3-pyridinecarboxamide] showed an EC50 on human α7 nAChR of 100 to 500 nM.
For the compound `CSc1cc(Cl)ccc1-n1cc(C(=O)N[C@H]2CN3CCC2CC3)ccc1=O` [Example 87, N-[(3R)-1-azabicyclo[2.2.2]octan-3-yl]-1-[4-chloro-2-(methylthio)phenyl]-6-oxo-3-pyridinecarboxamide], at human α7 nAChR, the EC50 is < 100 nM.
`O=C(NC1CN2CCC1CC2)c1ccc(=O)n(-c2ccc(F)cc2)c1` (stereo not drawn) [Example 7, N-(1-azabicyclo[2.2.2]octan-3-yl)-1-(4-fluorophenyl)-6-oxo-3-pyridinecarboxamide] showed a concentration for a half-maximal effect (EC50) on human α7 nAChR of 500 to 1000 nM.
Consider `CCCc1ccc(-n2cc(C(=O)NC3CN4CCC3CC4)ccc2=O)cc1` (stereo not drawn) [Example 15, N-(1-azabicyclo[2.2.2]octan-3-yl)-6-oxo-1-(4-propylphenyl)-3-pyridinecarboxamide], for which, at human α7 nAChR, the EC50 fell in the range of 500 to 1000 nM.
For `CC(C)(C)c1ccc(-n2cc(C(=O)NC3CN4CCC3CC4)ccc2=O)c(Cl)c1` (stereo not drawn) [Example 36, N-(1-azabicyclo[2.2.2]octan-3-yl)-1-(4-tert-butyl-2-chlorophenyl)-6-oxo-3-pyridinecarboxamide], the EC50 on human α7 nAChR lay within 100 to 500 nM.
`Cc1ccc(-c2ccc(-n3cc(C(=O)NC4CN5CCC4CC5)ccc3=O)c(Cl)c2)s1` (stereo not drawn) [Example 109, N-(1-azabicyclo[2.2.2]octan-3-yl)-1-[2-chloro-4-(5-methyl-2-thiophenyl)phenyl]-6-oxo-3-pyridinecarboxamide]: the minimal effective dose in the test with Male ICR mice [1] is 3 mg/kg. Also, the EC50 on human α7 nAChR was 100 to 500 nM.
As to `CSc1cc(C(C)C)ccc1-n1cc(C(=O)NC2CN3CCC2CC3)ccc1=O` (stereo not drawn) [Example 96, N-(1-azabicyclo[2.2.2]octan-3-yl)-1-[2-(methylthio)-4-propan-2-ylphenyl]-6-oxo-3-pyridinecarboxamide], the EC50 at human α7 nAChR was < 100 nM.
For the compound `O=C(NC1CN2CCC1CC2)c1ccc(=O)n(-c2ccccc2SCc2ccccc2)c1` (stereo not drawn) [Example 82, N-(1-azabicyclo[2.2.2]octan-3-yl)-6-oxo-1-[2-(phenylmethylthio)phenyl]-3-pyridinecarboxamide], the EC50 on human α7 nAChR fell in the range of 100 to 500 nM.
`CCCc1ccc(-n2cc(C(=O)NC3CN4CCC3CC4)ccc2=O)c(SC)c1` (stereo not drawn) [Example 94, N-(1-azabicyclo[2.2.2]octan-3-yl)-1-[2-(methylthio)-4-propylphenyl]-6-oxo-3-pyridinecarboxamide]: the concentration for a half-maximal effect (EC50) at human α7 nAChR was < 100 nM.
On the same count and under the same terms, for `CSc1ccc(-n2cc(C(=O)NC3CN4CCC3CC4)ccc2=O)cc1` (stereo not drawn) [Example 76, N-(1-azabicyclo[2.2.2]octan-3-yl)-1-[4-(methylthio)phenyl]-6-oxo-3-pyridinecarboxamide] the value was 100 to 500 nM.
For `CSc1cc(Cl)ccc1-n1cc(C(=O)NC2CN3CCC2CC3)ccc1=O` (stereo not drawn) [Example 86, N-(1-azabicyclo[2.2.2]octan-3-yl)-1-[4-chloro-2-(methylthio)phenyl]-6-oxo-3-pyridinecarboxamide], the minimal effective dose with Male ICR mice [1] is 0.3 mg/kg. The EC50 at human α7 nAChR was < 100 nM.
In turn, `Cc1ccc(-n2cc(C(=O)NC3CN4CCC3CC4)ccc2=O)cc1` (stereo not drawn) [Example 12, N-(1-azabicyclo[2.2.2]octan-3-yl)-1-(4-methylphenyl)-6-oxo-3-pyridinecarboxamide] gave an EC50 at human α7 nAChR of 500 to 1000 nM.
Compound `COc1ccc(-n2cc(C(=O)NC3CN4CCC3CC4)ccc2=O)c(OC)c1` (stereo not drawn) [Example 49, N-(1-azabicyclo[2.2.2]octan-3-yl)-1-(2,4-dimethoxyphenyl)-6-oxo-3-pyridinecarboxamide] came in with an EC50 at human α7 nAChR of 100 to 500 nM.
Same read-out and setting: in the case of `CCc1ccc(-n2cc(C(=O)NC3CN4CCC3CC4)ccc2=O)c(SC)c1` (stereo not drawn) [Example 98, N-(1-azabicyclo[2.2.2]octan-3-yl)-1-[4-ethyl-2-(methylthio)phenyl]-6-oxo-3-pyridinecarboxamide] it was < 100 nM; in that of `CN(C)c1ccc(-n2cc(C(=O)NC3CN4CCC3CC4)ccc2=O)cc1` (stereo not drawn) [Example 113, N-(1-azabicyclo[2.2.2]octan-3-yl)-1-[4-dimethylaminophenyl]-6-oxo-3-pyridinecarboxamide], 500 to 1000 nM.

In general, EC50 refers to the concentration that produces a half-maximal response. A higher EC50 goes with a less potent agent.
